{"source": "patent US6734310B2", "about": "“Fluorescent marker” (FEW Chemicals GmbH, priority 2000, dated 2004)", "key": {"[1]": {"assay": "VIS spectra of dye after coupling to a protein (aggregation in the protein conjugate)", "conditions": "FIG. 1"}, "[2]": {"conditions": "protein conjugate vs free dye; cited from earlier work"}}, "data": [{"smiles": "CC(C=CC1=[N+](CCCCCC(=O)O)c2ccc(S(=O)(=O)[O-])cc2C1(C)C)=CC=C1N(CCCCCC(=O)O)c2ccc(S(=O)(=O)[O-])cc2C1(C)C.[Na+]", "note": "[Example 1, 1-(5-carboxypentyl)-2-[5-(l-(5-carboxypentyl)-1,3-dihydro-3,3-dimethyl-5-sulpho-2H-indole-2-ylidene)-3-methylpenta-1,3-dienyl]-3,3-dimethyl-5-sulpho-3H-indolium-inner Salt, Sodium Salt]", "values": [{"measurement": "VIS spectrum curve shape (monomer / dimer band)", "setting": "[1]", "result": "typical curve shape for a monomer"}]}, {"smiles": "CC(C=CC1=[N+](CCCCCC(=O)O)c2ccc(S(=O)(=O)[O-])cc2C1(C)C)=C1N(CCCCCC(=O)O)c2ccc(S(=O)(=O)[O-])cc2C1(C)C.[Na+]", "note": "[Example 3, 1-(5-carboxypentyl)-2-[3-(1,3-dihydro-1-(5-carboxypentyl)-3,3-dimethyl-5-sulpho-2H-indole-2-ylidene)-3-methylprop-1-enyl]-3,3-dimethyl-5-sulpho-3H-indolium Hydroxide, Inner Salt, Sodium Salt]", "values": [{"measurement": "decrease of fluorescence quantum yield of the protein conjugate compared with free, unconjugated dye", "setting": "[2]", "result": "around ¼"}]}]}
